These results are taken from a melting point compilation (Tetko et al.; mined from patent text by program, amines drawn as free bases though some values may be those of a salt).

One may read the melting point as the temperature, or range, at which the solid turns liquid.

SMILES strings stand for the structures.

The molecule `Cc1ccc(S(=O)(=O)NCC(CC(=O)Nc2ccccc2)c2ccc(Cl)cc2)cc1` (configuration not stated) returned a melting point of 200 to 202 °C.
Under `Clc1ccc(-c2ccc(Br)cc2)nn1` stands 201 to 203 °C; under `CC(=Cc1cccc([N+](=O)[O-])c1)C(=O)O`, 201 to 202 °C.
Under `O=C(O)c1nc(Cl)sc1Cl` stands 191 °C.
Under `Cc1ccc(S(=O)(=O)OC2CCC3(C)C4CCC5(C)C(=O)CCC5C4CC(O)C3(O)C2)cc1` (configuration not stated) stands 154 to 156 °C; under `CCCCSCC(=O)c1cc2[nH]c(=O)[nH]c2cc1Cl`, 199 to 201 °C.
The molecule `CN1c2ccccc2Sc2c(C=O)cccc21` displayed a melting point of 103 °C.
Then `Cc1ccc(C)c(OCCCC(C)(C)C(=O)Nc2cccc(C(=O)O)c2)c1`, with 161 °C.
Then `COc1ccc(Nc2nc(C)ncc2S(=O)(=O)c2ccc(OCc3ccccc3)cc2)c(C)n1`, with 160 to 165 °C; and `Cc1nc(NCc2ccc(C)o2)c2nc(-c3ccccc3)cc-2[nH]1`, with 125 to 128 °C; and `Fc1ccc(Nc2ncnc(NN=Cc3ccc(OC(F)(F)F)cc3)n2)cc1C(F)(F)F`, with 185 to 186 °C.
Then `N#CCCc1c(-c2ccccc2)c(=O)[nH]c2cc(Cl)ccc12`, with 252 to 254 °C.
In the case of `COc1ccc(N2C(=O)[C@H](NC(=O)OC(C)(C)C)[C@@H]2CON2C(=O)c3ccccc3C2=O)cc1` (relative stereo), the melting point was 188 to 189 °C.
`CCCCOc1c(C(=O)O)n(CC2CC2)c(=O)c2ccc(OCc3ccccc3)cc12` registered a melting point of 178 to 179 °C.
Then `[N-]=[N+]=Nc1nc(NC(=O)c2ccccc2)nc2c1ncn2CC(O)CF` (racemic), with 198 °C.
Then `O=[N+]([O-])C=Cc1ccc(OCc2ccccc2)c(OCc2ccccc2)c1`, with 118 to 119 °C.
Then `CSc1cn(C)cc(-c2cccc(C(F)(F)F)c2)c1=O`, with 121 to 122 °C; and `CC1Cc2c(c3cccnc3n(-c3ccc(Cl)c(Cl)c3)c2=O)O1` (configuration not stated), with 273 to 274 °C.
`O=C(NCCc1ccc(I)cc1)C(F)(F)F` displayed a melting point of 136 to 138 °C.
Under `CCc1nc2c(c3c1[nH]c1ccccc13)C(=O)CC(C)(C)C2` stands 188 to 190 °C.
Under `Cc1cccc(C)c1NC(=O)CCCCCc1cccnc1` stands 98 to 100 °C; under `CN(C)CCn1c2ccccc2c(=NN=C2NCCS2)c2ccccc21`, 192 to 194 °C.
Molecule `COCCCn1c(Cl)nc2ccc(C)cc21` returned a melting point of 40 to 44 °C.
Under `Fc1cccc2oc(CCC#Cc3ccccn3)nc12` stands 89 to 89.5 °C.
Under `Cc1cc(-c2nc3c(s2)C(=O)c2ccccc2C3=O)oc1C` stands 250 °C; under `CCOCCN(c1cccc2cc(C(N)=S)[nH]c12)S(=O)(=O)c1cccs1`, 182 °C; under `Nc1ncnc2c1c(-c1ccc(Oc3cccc(CN4CCOCC4)c3)cc1)cn2C1CCOC1` (configuration not stated), 83 to 85 °C.
Then `Cc1cc(Oc2ccc([N+](=O)[O-])c(N(C)C(=O)OC(C)(C)C)c2)cc(C)c1NC(=O)OC(C)(C)C`, with 154 to 156 °C; and `NC(=O)c1nc(-c2cccc(O)c2)nc2c1[nH]c(=O)n2Cc1ccccc1`, with 362 to 366 °C.
Molecule `Cc1ccccc1C(=C1CN(C(c2ccccc2)c2ccccc2)C1)S(C)(=O)=O` displayed a melting point of 218 °C.
`COc1cc(C=CC=C2SC(=O)NC2=O)ccc1OC(C)C` showed a melting point of 230 to 231 °C.
Then `Cc1cccc(C)c1NCCCNCC(O)COc1ccc(O)cc1` (configuration not stated), with 97 to 98 °C.
The molecule `Cc1cc2c3c(c1)nc(N1CCN(C)CC1)n3CCC2` yielded a melting point of 164 to 165 °C.
Under `CN1CCC2(CCc3c(C4=C(c5cn(C)c6ccccc56)C(=O)OC4=O)c4ccccc4n3C2)C1` (configuration not stated) stands 238 to 240 °C; under `ClC1=NC(Cl)(c2ccc(Cl)cc2)NC=N1` (configuration not stated), 142 to 143 °C; under `CN(C)c1cccc(CNc2nc(Nc3cccc(NS(C)(=O)=O)c3)nc3[nH]cnc23)c1`, 148 to 151 °C.
Then `C=C(C)c1cc(Br)c(Oc2nc(C)nc3c2nnn3C(CCC)CCC)c(OC)c1`, with 110 to 115 °C.
Then `COc1cc(OC)c(-c2cccs2)cc1/C=C/C(=O)c1ccc(S(=O)(=O)NCc2cccnc2)cc1`, with 167 to 168 °C; and `CNC(=O)n1cnc(C)c1Cl`, with 94.1 to 94.4 °C; and `O=C(OCc1ccccc1)C1CCCc2c1c1ccccc1n2C(=O)c1ccc(Cl)cc1` (configuration not stated), with 123 to 124 °C.
For `Oc1ccc(-c2nn(-c3ccccc3F)c3cc(O)ccc23)c(O)c1`, the melting point is above 205 °C.
Consider `Cc1ccc(NCCC(N)=S)c(C)c1`, for which the melting point is 104 to 105 °C.
Under `CCOc1ccc2[nH]cc(CC(C)(N)C(=O)OC)c2c1` (racemic) stands 165 to 166 °C; under `Cc1cc(Br)cnc1CCCCNC1=NS(=O)N=C1NCc1ccccc1` (configuration not stated), 175 to 176 °C; under `Cc1ccc(C2CCN(C(=O)Nc3ccc4cc(CN5CCCCC5)ccc4c3)CC2)cc1`, 227 to 228 °C.
Take `OC(Cc1ccc(C(F)(F)F)cc1)(Cn1ccnc1)Cn1cncn1` (configuration not stated): the melting point lay within 159 to 161 °C.
Then `CCOC(=O)C(C(=O)OC(C)C)=C1SC=CS1`, with 54 °C; and `COC(=N)c1nn(-c2c(Cl)cc(C(F)(F)F)cc2Cl)c(N)c1S(C)=O` (configuration not stated), with 179 to 180 °C; and `COC(=O)c1ccc(-c2ccc(-c3ccccc3)c(-c3ccc4c(c3)C(C)(C)CCC4(C)C)c2)cn1`, with 160 to 162 °C.
Then `O=C(c1ccco1)c1cnn2c(-c3ccccc3)ccnc12`, with 185 to 187 °C; and `Cc1c(C(=O)O)nc2c(=O)[nH]c3cc(C(F)(F)F)c(-n4cccc4)cc3n12`, with 265 to 270 °C; and `CC1c2ccccc2N(CCN2CC=C(c3c[nH]c4cc(F)ccc34)CC2)S(=O)(=O)N1C` (configuration not stated), with 105 to 108 °C.
Under `C[C@H]1N(C(=O)c2ccc(C(F)(F)F)cc2F)CC(=O)O[C@@]1(Cn1cncn1)c1ccc(F)cc1F` (relative stereo) stands 191 to 192 °C; under `C=C=C[C@]12CCC(=O)C=C1C(=O)C[C@@H]1[C@@H]2CC[C@]2(C)C(=O)CC[C@@H]12`, 187 to 190 °C.
`Cc1nnsc1NC(=O)Nc1ccc(-n2nc(C(F)(F)F)cc2C2CC2)cc1` showed a melting point of 124 to 128 °C.
Molecule `NS(=O)(=O)N1CCC(CCNC(=O)c2cc(Cl)ccn2)CC1` had a melting point of 186 to 187 °C.
In turn, `CCOC(=O)c1cc(-c2ccccc2)n(-c2cccc(C(N)=O)c2)c1C` returned a melting point of 238 to 239 °C.
The molecule `O=c1[nH]c2cc([N+](=O)[O-])sc2[nH]c1=O` showed a melting point above 300 °C.
Then `COc1cccc(-c2nc(C(=O)OC(C)(C)C)c(-c3ccncc3)[nH]2)c1`, with 197 to 199 °C; and `CCOC(=O)c1cc(=O)c(-c2ccc(OCc3ccccc3)c(OCc3ccccc3)c2)co1`, with 122 to 125 °C; and `NS(=O)(=O)C1Cc2ccccc2CC1=O` (configuration not stated), with 145 to 146 °C.
Take `N#Cc1c(N2CCCN(c3ccc(F)c(F)c3)CC2)cc[nH]c1=S`: the melting point lay in the range of 250 to 251 °C.
Under `CCOC(=O)N1N=C(c2ccc(N)cc2)c2cc(Cl)c(Cl)cc2CC1C` (configuration not stated) stands 190 to 192 °C; under `CCCc1[nH]c2cc(C(=O)OC)ccc2c1C(=O)COC`, 127 to 129 °C.
Then `O=C1CCc2ccc3ncoc3c21`, with 188 to 190 °C; and `CC(C)=CCCC(C)=CCNC(=O)Nc1ccccc1CCc1cc(C(C)(C)C)c(O)c(C(C)(C)C)c1`, with 87 to 87.5 °C.
`COc1ccc(S(=O)(=O)Nc2cccc(C)c2NC(=O)c2ccccn2)cc1` displayed a melting point of 180 to 182 °C.
Under `CSCC(C)(C)N(C(=O)c1c(I)cccc1C(N)=O)c1ccc(Cn2nnn(-c3ccc(C(F)(F)F)cc3)c2=O)cc1C` stands 83 to 87 °C; under `CCCC(C)c1nn(-c2ccc(C(F)(F)F)cn2)cc1CCCO` (configuration not stated), 72 to 73 °C; under `O=P(Oc1ccc(S(=O)(=O)c2ccc(OP(=O)(c3ccccc3)c3ccccc3)cc2)cc1)(c1ccccc1)c1ccccc1`, 210 to 211 °C.
In turn, `CCCCC(NC(=O)C(CC(C)C)NC(=O)COc1ccc2ccccc2c1)C(=O)CSCc1ccco1` (configuration not stated) gave a melting point of 87 to 89 °C.
As for `O=c1[nH]c2cc(Cl)ccc2n1C1CCN(Cc2ccnc(-c3ccc(Cl)cc3)c2)CC1`, the melting point is 186 to 188 °C.
Under `Cn1ccc2cc(/C=C/C3=CCN(Cc4ccccc4)CC3)ccc21` stands 138 °C; under `Nc1nc(N)n(CCCOc2cccc(CN3CCCCC3)c2)n1`, 100 °C; under `Cc1cccc(Cl)c1NC(=O)Nc1cc(NC(C)C)ncn1`, 233 °C.
Then `COC(=S)CCc1cc(Oc2ccc(C(F)(F)F)cc2Cl)ccc1[N+](=O)[O-]`, with 61 to 63 °C; and `Cc1ccc(N2CCN(c3c(C)c(C)c4c(c3C)CC(C)(CO)O4)CC2)cc1` (configuration not stated), with 152 to 155 °C; and `Cc1cc(S(=O)(=O)N2c3ccccc3CC2C(=O)NCCOc2ccc(CC(=O)O)cc2)ccc1-c1cccc(C(F)(F)F)c1` (configuration not stated), with 92 °C.
Then `O=C(Nc1ccc2c(c1)CCC2=O)c1ccc(-c2ccccc2)cc1`, with 217 to 219 °C.
Turning to `OCc1c(F)cccc1NC1CCN(Cc2ccccc2)CC1`, the melting point is 167 to 170 °C.
Under `OC(COc1ccc(Cl)cc1)(Cn1cncn1)Cn1cncn1` stands 99 °C; under `O=C(O)c1ncccc1CCc1cccc(F)c1`, 118 to 122 °C; under `Cc1ccc(C(=O)c2cccc(C(C)C#N)c2)cc1` (configuration not stated), 52 to 55 °C.
Then `COc1ccc(CC=[N+]([O-])C(C)(C)C)cc1`, with 90 to 91 °C.
`Cc1cccc(Nc2ccccc2C(=O)NO)c1C`: the melting point lay within 124 to 125 °C.
Under `COc1ccc(Oc2cccc(Oc3ccc4c(c3)OCO4)c2C(=O)O)cc1` stands 163 to 165 °C; under `O=C(CI)NCCSC=CSCCNC(=O)CI`, 129 °C.
